Holding throughout (assay): relative viability (nuclei count vs DMSO), 5 days (fraction); higher = more cells survive
Compound in one assay: CC(C)(C)c1cc(NC(=O)Nc2ccc(-c3cn4c(n3)sc3cc(OCCN5CCOCC5)ccc34)cc2)no1 [Quizartinib]
A digest of the protocol: (§1)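 A plate was accepted only when its control CV was below 25% and the cells had doubled at least once. Viability is defined from nuclear counts as treated wells divided by vehicle wells, with the median taken across plates. That median covers lung cancer cell lines grown in 1536-well plates, dosed by pinning at five √10-spaced library-drug concentrations, and counted in MetaXpress from 4× Hoechst images after 5 days.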

Compound in another assay: COCC[n+]1c2c(n(Cc3cnccn3)c1C)C(=O)c1ccccc1C2=O [YM155]
A digest of the protocol: as §1

Compound in the assay “YM155 + AZD7762”: COCC[n+]1c2c(n(Cc3cnccn3)c1C)C(=O)c1ccccc1C2=O [YM155] + NC(=O)Nc1cc(-c2cccc(F)c2)sc1C(=O)N[C@H]1CCCNC1 [AZD7762] (partner 0.2 µM)
A digest of the protocol: (§2)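 Lung cancer cell lines were pin-tool dosed in 1536-well plates on the day after seeding, with either a lone drug or a fixed anchor-drug dose plus five library-drug doses (not always all listed) in √10 steps. Nuclei were counted on 4× images after 5 days. Relative viability is the ratio of treated-well to vehicle-well nuclei counts, with each value a median of duplicate plates.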

Compound in the assay “YM155 + OSI-027”: COCC[n+]1c2c(n(Cc3cnccn3)c1C)C(=O)c1ccccc1C2=O [YM155] + COc1cccc2cc(-c3nc([C@H]4CC[C@H](C(=O)O)CC4)n4ncnc(N)c34)[nH]c12 [OSI-027] (partner 0.5 µM)
A digest of the protocol: as §2

Compound in assay [1]: CC(C)(C)c1cc(NC(=O)Nc2ccc(-c3cn4c(n3)sc3cc(OCCN5CCOCC5)ccc34)cc2)no1 [Quizartinib] + CC(=O)c1c(C)c2cnc(Nc3ccc(N4CCNCC4)cn3)nc2n(C2CCCC2)c1=O [Palbociclib] (partner 0.5 µM)
A digest of the protocol:
as §2

For NCI-H1648, the relative viability was determined as 0.756 in the assay with Quizartinib (0.003162 µM); 0.81 with Quizartinib (0.01 µM); 0.886 in the assay with Quizartinib (0.03162 µM); 1.29 with Quizartinib (0.1 µM); 0.748 with YM155 (0.002 µM); 1.11 in the assay with YM155 (0.006325 µM). Moreover, the relative viability with YM155 (0.02 µM) was 0.829; with YM155 (0.06325 µM) it was 0.995; in the assay with YM155 + AZD7762 (first compound 0.006325 µM), 0.689; in the assay with YM155 + AZD7762 (first compound 0.02 µM) it was 0.557; with YM155 + AZD7762 (first compound 0.06325 µM), 0.634; in the assay with YM155 + OSI-027 (first compound 0.002 µM) it was 0.283. Further, the relative viability worked out at 0.271 with YM155 + OSI-027 (first compound 0.006325 µM); 0.259 in the assay with YM155 + OSI-027 (first compound 0.02 µM); 0.231 with YM155 + OSI-027 (first compound 0.06325 µM); 0.118 in assay [1] (first compound 0.003162 µM); 0.277 in assay [1] (first compound 0.03162 µM); 0.239 in assay [1] (first compound 0.1 µM).
